Results reported in patent US20050054555A1, “Kahalalide compounds for use in cancer therapy” (priority 2001, published 2005).

Key:
[1] = test system: human patients afflicted with cancer; experiment: Clinical programme (both phase I trials): toxicity summary; type: in vivo
Description: Clinical trials were carried out based on the following protocols:
(§1) The rate of subject entry and escalation to the next dose level will depend upon assessment of the safety profile of patients entered at each dose level. Toxicity will be evaluated and graded according to the Common Toxicity Criteria, version 2.0.

solid tumours = test system: solid tumours
Description: KHF-A-002-01. Phase I Clinical and Pharmacokinetic study to determine the safety of Kahalalide F administered as a weekly infusion over 1 hour in patients with solid tumours.
This trial was addressed to any solid tumours and was designed as a classical escalation. […] One cycle in this trial means a week, so 4 cycles mean 1 month of treatment.

[2] = test system: patients with advanced or metastatic prostate cancer; experiment: Phase I trial KHF-A-001-00: safety of kahalalide F daily x 5 over 1 hour infusion every 21 days; type: in vivo, human
Excerpt: as §1
In order to minimize the number of patients treated at the subtoxic dose levels, a single patient will be treated per dose level with 100% dose escalation in the absence of any toxicity G2 (excluding alopecia) during their first course of treatment. After the occurrence of grade 2 toxicity (excluding asthenia, alopecia, nausea and vomiting or anemia), the dose level is expanded to three patients with only 50% incremental increase in dosage in advancing to the next dose level. For the occurrence of grade 3 non-hematological toxic effects the dose level should be expanded up to six patients. This second cohort of 3 patients will be included consecutively. If the first or second patient develops dose limiting toxicities no further patients will be treated at this dose level, it will be defined as MTD and the accrual will begin at a lower dose level. If only one DLT occurs at this dose level another 3 patients will be included at the next dose level with an increase of 25% only.
There is no intrapatient dose escalation, only de-escalation. If the toxicity is grade 3 or worse in a course of chemotherapy, then the dose is reduced one level for the next course.
The maximum tolerated dose (MTD) is defined as the dose at which at least 2 out of 3 or more than 3 patients experience DLT. However, it is possible that additional patients may experience DLT due to the timing of patient enrollment into that dose level.
Dose limiting toxicities (DLTs) are defined as follows: […]
Grade IV Neutropenia lasting for >5 days or with a temperature >38.5.
Grade IV thrombocytopenia.
Any other grade III or IV non hematological toxicity, excluding nausea, emesis and hypersensitivity reactions.
Grade III or IV liver toxicity if not reversible by day 21.
These toxicities are only considered DLTs if they happen during cycle 1. […]
A dose of 20 mcg/m2 was considered a safe starting dose on the basis of acute toxicity studies in animals. The trial was designed as an accelerated dose escalation (pharmacokinetically guided).

[3] = 400 mcg/m2 weekly, 6 months (24 cycles)
[4] = 19 patients, daily x5 every 21 days, all dose levels
[5] = 20 patients, daily x5 every 21 days, all dose levels
[6] = 20 patients, daily x5 every 21 days, all dose levels, calcium adjusted
[7] = 20 patients, daily x5 every 21 days, all dose levels, not drug-related

C/C=C1\NC(=O)[C@H](Cc2ccccc2)NC(=O)[C@@H](C(C)C)NC(=O)[C@@H](C(C)CC)NC(=O)[C@H](NC(=O)C(NC(=O)[C@H](CCCN)NC(=O)[C@H]2CCCN2C(=O)[C@H](NC(=O)[C@@H](NC(=O)[C@@H](NC(=O)[C@H](NC(=O)CCCC(C)C)C(C)C)C(C)O)C(C)C)C(C)C)C(C)CC)C(C)OC(=O)[C@H](C(C)C)NC1=O (single isomer, unassigned) [kahalalide F]
Grade 1-2 neutropenia, share of patients [1]: 10%
Grade 1 hypokalyemia, share of patients [1]: 20%
grade 1 hypophosphatemia, share of patients [1]: 10%
grade 1 renal toxicity, share of patients [1]: about 35%
grade 2 hypophosphatemia, share of patients [1]: 15%
grade 3-4 hematologic toxicities [1]: No grade 3-4 toxicities were reported
overall response in a patient with hepatocellular carcinoma (solid tumours; [3]): stable disease
response in a patient with hepatocellular carcinoma (target lesion) (solid tumours; [3]): Partial response in one target lesion
efficacy in a patient with epidermoid carcinoma of the cavum (solid tumours; 400 mcg/m2 weekly, ORL exploration): Subjective improvement and non evaluable response
efficacy in a patient with non small cell lung cancer (solid tumours; 530 mcg/m2 weekly, 4 months (16 infusions)): without evidence of progression disease
Efficacy (tumour type with hints of efficacy) (solid tumours; Level III, dose 530 weekly): NSCLC
efficacy in one patient with peritoneal mesothelioma (solid tumours; weekly schedule): clinical benefit with reduction of ascytes volume
concentration from which active in the clonogenic tumour assay (prostate cancer): ≥ 15 ng/mL
only drug related toxicity to date ([2]; 320 μg/m2/day, rapidly reversible, preliminary report, 7 patients): CTC grade 3 ASAT
Hematologic toxicity (worst per patient): Hemoglobin, Grade 1 [2, 4]: 63.2%
Hematologic toxicity (worst per patient): Hemoglobin, Grade 2 [2, 4]: 26.3%
Hematologic toxicity (worst per patient): Hemoglobin, Grade 3 [2, 4]: 0%
Hematologic toxicity (worst per patient): Hemoglobin, Grade 4 [2, 4]: 0%
Hematologic toxicity (worst per patient): Leukocytes, Grade 1 [2, 4]: 10.5%
Hematologic toxicity (worst per patient): Leukocytes, Grade 2 [2, 4]: 0%
Hematologic toxicity (worst per patient): Leukocytes, Grade 3 [2, 4]: 0%
Hematologic toxicity (worst per patient): Leukocytes, Grade 4 [2, 4]: 0%
Hematologic toxicity (worst per patient): Neutrophils, Grade 1 [2, 4]: 5%
Hematologic toxicity (worst per patient): Neutrophils, Grade 2 [2, 4]: 5%
Hematologic toxicity (worst per patient): Neutrophils, Grade 3 [2, 4]: 0%
Hematologic toxicity (worst per patient): Neutrophils, Grade 4 [2, 4]: 0%
Hematologic toxicity (worst per patient): Platelets, Grade 1 [2, 4]: 21.1%
Hematologic toxicity (worst per patient): Platelets, Grade 2 [2, 4]: 0%
Hematologic toxicity (worst per patient): Platelets, Grade 3 [2, 4]: 0%
Hematologic toxicity (worst per patient): Platelets, Grade 4 [2, 4]: 0%
Most frequently reported non-hematologic toxicities: Diarrhea, Grade 1 [2, 5]: 10
Most frequently reported non-hematologic toxicities: Diarrhea, Grade 2 [2, 5]: 5
Most frequently reported non-hematologic toxicities: Diarrhea, Grade 3 [2, 5]: 0
Most frequently reported non-hematologic toxicities: Diarrhea, Grade 4 [2, 5]: 0
Most frequently reported non-hematologic toxicities: Fatigue, Grade 1 [2, 5]: 35
Most frequently reported non-hematologic toxicities: Fatigue, Grade 2 [2, 5]: 10
Most frequently reported non-hematologic toxicities: Fatigue, Grade 3 [2, 5]: 25
Most frequently reported non-hematologic toxicities: Fatigue, Grade 4 [2, 5]: 0
Most frequently reported non-hematologic toxicities: Hypersensitivity, Grade 1 [2, 5]: 20
Most frequently reported non-hematologic toxicities: Hypersensitivity, Grade 2 [2, 5]: 5
Most frequently reported non-hematologic toxicities: Hypersensitivity, Grade 3 [2, 5]: 0
Most frequently reported non-hematologic toxicities: Hypersensitivity, Grade 4 [2, 5]: 0
Most frequently reported non-hematologic toxicities: Inject-site reaction, Grade 1 [2, 5]: 10
Most frequently reported non-hematologic toxicities: Inject-site reaction, Grade 2 [2, 5]: 20
Most frequently reported non-hematologic toxicities: Inject-site reaction, Grade 3 [2, 5]: 0
Most frequently reported non-hematologic toxicities: Inject-site reaction, Grade 4 [2, 5]: 0
Most frequently reported non-hematologic toxicities: Nausea, Grade 1 [2, 5]: 15
Most frequently reported non-hematologic toxicities: Nausea, Grade 2 [2, 5]: 10
Most frequently reported non-hematologic toxicities: Nausea, Grade 3 [2, 5]: 0
Most frequently reported non-hematologic toxicities: Nausea, Grade 4 [2, 5]: 0
Most frequently reported non-hematologic toxicities: Periph-sens neuro, Grade 1 [2, 5]: 20
Most frequently reported non-hematologic toxicities: Periph-sens neuro, Grade 2 [2, 5]: 0
Most frequently reported non-hematologic toxicities: Periph-sens neuro, Grade 3 [2, 5]: 5
Most frequently reported non-hematologic toxicities: Periph-sens neuro, Grade 4 [2, 5]: 0
Most frequently reported non-hematologic toxicities: Vomiting, Grade 1 [2, 5]: 15
Most frequently reported non-hematologic toxicities: Vomiting, Grade 2 [2, 5]: 10
Most frequently reported non-hematologic toxicities: Vomiting, Grade 3 [2, 5]: 0
Most frequently reported non-hematologic toxicities: Vomiting, Grade 4 [2, 5]: 0
Non-hematologic toxicity, lab abnormalities per patient: Albumin, Grade 1 [2, 5]: 30%
Non-hematologic toxicity, lab abnormalities per patient: Albumin, Grade 2 [2, 5]: 10%
Non-hematologic toxicity, lab abnormalities per patient: Albumin, Grade 3 [2, 5]: 5%
Non-hematologic toxicity, lab abnormalities per patient: Albumin, Grade 4 [2, 5]: 0%
Non-hematologic toxicity, lab abnormalities per patient: Bilirubin, Grade 1 [2, 5]: 10%
Non-hematologic toxicity, lab abnormalities per patient: Bilirubin, Grade 2 [2, 5]: 0%
Non-hematologic toxicity, lab abnormalities per patient: Bilirubin, Grade 3 [2, 5]: 0%
Non-hematologic toxicity, lab abnormalities per patient: Bilirubin, Grade 4 [2, 5]: 0%
Non-hematologic toxicity, lab abnormalities per patient: CPK, Grade 1 [2, 5]: 35%
Non-hematologic toxicity, lab abnormalities per patient: CPK, Grade 2 [2, 5]: 0%
Non-hematologic toxicity, lab abnormalities per patient: CPK, Grade 3 [2, 5]: 0%
Non-hematologic toxicity, lab abnormalities per patient: CPK, Grade 4 [2, 5]: 0%
Non-hematologic toxicity, lab abnormalities per patient: Creatinine, Grade 1 [2, 5]: 35%
Non-hematologic toxicity, lab abnormalities per patient: Creatinine, Grade 2 [2, 5]: 0%
Non-hematologic toxicity, lab abnormalities per patient: Creatinine, Grade 3 [2, 5]: 0%
Non-hematologic toxicity, lab abnormalities per patient: Creatinine, Grade 4 [2, 5]: 0%
Non-hematologic toxicity, lab abnormalities per patient: GGT, Grade 1 [2, 5]: 35%
Non-hematologic toxicity, lab abnormalities per patient: GGT, Grade 2 [2, 5]: 15%
Non-hematologic toxicity, lab abnormalities per patient: GGT, Grade 3 [2, 5]: 25%
Non-hematologic toxicity, lab abnormalities per patient: GGT, Grade 4 [2, 5]: 5%
Non-hematologic toxicity, lab abnormalities per patient: GOT, Grade 1 [2, 5]: 40%
Non-hematologic toxicity, lab abnormalities per patient: GOT, Grade 2 [2, 5]: 15%
Non-hematologic toxicity, lab abnormalities per patient: GOT, Grade 3 [2, 5]: 15%
Non-hematologic toxicity, lab abnormalities per patient: GOT, Grade 4 [2, 5]: 10%
Non-hematologic toxicity, lab abnormalities per patient: GPT, Grade 1 [2, 5]: 15%
Non-hematologic toxicity, lab abnormalities per patient: GPT, Grade 2 [2, 5]: 25%
Non-hematologic toxicity, lab abnormalities per patient: GPT, Grade 3 [2, 5]: 20%
Non-hematologic toxicity, lab abnormalities per patient: GPT, Grade 4 [2, 5]: 10%
Non-hematologic toxicity, lab abnormalities per patient: Hypo P, Grade 1 [2, 5]: 10%
Non-hematologic toxicity, lab abnormalities per patient: Hypo P, Grade 2 [2, 5]: 15%
Non-hematologic toxicity, lab abnormalities per patient: Hypo P, Grade 3 [2, 5]: 0%
Non-hematologic toxicity, lab abnormalities per patient: Hypo P, Grade 4 [2, 5]: 0%
Non-hematologic toxicity, lab abnormalities per patient: HypoK+, Grade 1 [2, 5]: 20%
Non-hematologic toxicity, lab abnormalities per patient: HypoK+, Grade 2 [2, 5]: 0%
Non-hematologic toxicity, lab abnormalities per patient: HypoK+, Grade 3 [2, 5]: 0%
Non-hematologic toxicity, lab abnormalities per patient: HypoK+, Grade 4 [2, 5]: 0%
Non-hematologic toxicity, lab abnormalities per patient: HypoNa+, Grade 1 [2, 5]: 10%
Non-hematologic toxicity, lab abnormalities per patient: HypoNa+, Grade 2 [2, 5]: 0%
Non-hematologic toxicity, lab abnormalities per patient: HypoNa+, Grade 3 [2, 5]: 5%
Non-hematologic toxicity, lab abnormalities per patient: HypoNa+, Grade 4 [2, 5]: 5%
Non-hematologic toxicity, lab abnormalities per patient: HypoCa*, Grade 1 [2, 6]: 65%
Non-hematologic toxicity, lab abnormalities per patient: HypoCa*, Grade 2 [2, 6]: 0%
Non-hematologic toxicity, lab abnormalities per patient: HypoCa*, Grade 3 [2, 6]: 0%
Non-hematologic toxicity, lab abnormalities per patient: HypoCa*, Grade 4 [2, 6]: 0%
Most frequently reported non-hematologic toxicities: Hypertension, Grade 1 [2, 7]: 0
Most frequently reported non-hematologic toxicities: Hypertension, Grade 2 [2, 7]: 0
Most frequently reported non-hematologic toxicities: Hypertension, Grade 3 [2, 7]: 15
Most frequently reported non-hematologic toxicities: Hypertension, Grade 4 [2, 7]: 0
Non-hematologic toxicity, lab abnormalities per patient: Alk. phosphatase, Grade 1 [2, 7]: 35%
Non-hematologic toxicity, lab abnormalities per patient: Alk. phosphatase, Grade 2 [2, 7]: 20%
Non-hematologic toxicity, lab abnormalities per patient: Alk. phosphatase, Grade 3 [2, 7]: 25%
Non-hematologic toxicity, lab abnormalities per patient: Alk. phosphatase, Grade 4 [2, 7]: 5%
Worst toxicity ([2]; Level I, dose 20 mcg/m2, 1 patient): none
Worst toxicity ([2]; Level II, dose 40, 1 patient): none
Worst toxicity ([2]; Level III, dose 80, 1 patient): none
Worst toxicity ([2]; Level IV, dose 160, 1 patient): none
Worst toxicity ([2]; Level VI, dose 425, 3 patients): none
Worst toxicity ([2]; Level VIII, dose 700, 3 patients): none
hematological toxicity ([2]; daily x5 schedule): no hematological toxicity was seen
most commonly seen liver toxicity in the MTD ([2]; daily x5 schedule): grade 4 transaminases elevation
